# What was measured:
# Pasteurella multocida [1] = test: Killing bacteria by melatonin above MBC (OD600, living bacteria count); assay type: cell-based; details: for time to kill all bacteria: FIGS. 2 and 3
# Procedure: Into 100 mL of fresh and sterile Martin broth medium, 1 mL of Pasteurella multocida (1×10^9 CFU) at the logarithmic growth stage was added. The bacteria were cultured in a constant-temperature shaker under conditions of 37° C. and 220 rpm for 8 hours. […] After the addition of MT, the bacterial culture was continuously measured for OD600 every 20 minutes to depict a growth curve under the action of melatonin at a concentration higher than the MBC. At the same time, 100 μL of the bacterial culture was evenly coated on a Martin agar plate, and incubated at 37° C. for 24 h so as to calculate the number of living bacteria for bacterial counting.
# [2] = tested on: citrate synthase in Klebsiella pneumoniae; test: Citrate synthase activity of bacteria after treatment; assay type: cell-based; details: MT 1-3 mg/mL, 12 h, FIG. 28
# Procedure: (§1) Further, 1 mL of Klebsiella pneumoniae, Pseudomonas aeruginosa, Diplococcus pneumoniae and Streptococcus pneumoniae at the logarithmic growth stage was added into 100 mL of fresh and sterile Martin broth liquid medium containing different concentrations of melatonin and citric acid (MT-1 mg/mL, MT-2 mg/mL, MT-3 mg/mL, CA-1 mg/mL, CA-2 mg/mL, CA-3 mg/mL, MT-1 mg/mL-CA-1 mg/mL, MT-2 mg/mL-CA-2 mg/mL, MT-3 mg/mL-CA-3 mg/mL) added was. Melatonin-free DMSO was used as the solvent control group, and the bacterial cells were cultured in a constant-temperature shaker at 37° C. and 220 rpm for 12 h. Thereafter, 1 mL of the bacterial solution was pipetted and centrifuged at 3000 r/min for 10 minutes. The bacterial cells were then collected and determined for citrate synthase activity according to the protocol of the instructions for the kit. Each experiment was repeated three times, and each group was set in triplicate.
# [3] = target: T1, citrate synthase in Pseudomonas aeruginosa (Pseudomonas aeruginosa, UniProt P14165); test: as above; assay type: cell-based; details: MT 1-3 mg/mL, 12 h, FIG. 28
# T1 construct: The bacterial cells were then collected and determined for citrate synthase activity according to the protocol of the instructions for the kit; endogenous in cells; host or cells: Pseudomonas aeruginosa culture
# T1 sequence (P14165 whole entry): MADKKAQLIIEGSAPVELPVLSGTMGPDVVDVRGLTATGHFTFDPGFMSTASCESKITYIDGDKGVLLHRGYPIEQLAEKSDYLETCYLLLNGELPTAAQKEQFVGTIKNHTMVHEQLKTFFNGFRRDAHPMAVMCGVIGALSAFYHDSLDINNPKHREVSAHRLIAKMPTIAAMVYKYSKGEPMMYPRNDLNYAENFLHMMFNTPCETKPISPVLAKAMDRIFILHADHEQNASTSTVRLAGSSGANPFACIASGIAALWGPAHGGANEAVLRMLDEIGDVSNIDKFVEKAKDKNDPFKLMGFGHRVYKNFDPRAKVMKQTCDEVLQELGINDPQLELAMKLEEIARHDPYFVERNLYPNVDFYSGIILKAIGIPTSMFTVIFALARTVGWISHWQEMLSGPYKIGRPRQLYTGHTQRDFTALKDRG
# Procedure: as §1
# Pasteurella multocida [4] = test: Treatment of Pasteurella multocida infection by melatonin in mice; assay type: in vivo, C57BL/6 mice; details: intraperitoneal at 30 minutes, 6, 12 and 18 hours after infection
# Procedure: Mice were randomly divided into four groups (10 mice in each group) as described in #1, described above. In the experimental group, after infection with 2.2×10^5 CFU of Pasteurella multocida through intraperitoneal injection, MT was injected intraperitoneally for four times, with the first injection 30 minutes after Pasteurella multocida infection, then the injection was performed once every 6 hours, for three times in total. Control mice were given an equal amount of DMSO at the same four time points. Subsequently, the survival rate of mice within 7 days was recorded. At the same time, mice were euthanized at 12 h, 16 h, 24 h and 32 h after infection to collect tissue and serum samples for later ELISA and bacterial count analysis.
# In order to measure the colonization of mouse lung bacteria before and after melatonin treatment, the lung tissues of mice were collected 24 hours and 32 hours after infection. The tissues were homogenized under aseptic conditions, and the bacterial content was determined by continuous dilution of 10 times in saline. These different dilutions were coated on the Martin broth agar in triplicate and incubated in a constant-temperature incubator at 37° C. for 24 hours to count the bacterial CFU.
# inflammatory cytokines = test: RT-PCR and ELISA of inflammatory cytokines after Pasteurella multocida infection; assay type: in vivo, C57BL/6 mice; details: 24 hours after infection, lung tissues and serum
# Procedure: The mouse lung tissue samples were collected, and the total RNA of mouse lung tissues was extracted according to the instructions of the total RNA extraction kit (Invitrogen). According to the instructions of a TaKaRa reverse transcription kit, cDNA was prepared and reverse transcribed with the general process as follows:
# The process of qRT-PCR was carried out with reference to previous studies, and (3-actin was used as a reference gene to normalize the transcription level of the target gene. The specific primer sequences used are shown in Table 2. The relative expression level of the gene was calculated according to the equation 2^−(ΔΔCt), wherein ΔΔCt=(CT of the target gene−Ct of the internal reference) of the experimental group−(Ct of the target gene−Ct of the internal reference) of the control group.
# ELISA samples were divided into serum samples and lung tissue homogenate samples. Among them, the process of collecting serum was collecting mouse whole blood from the eyeball, storing overnight at 4° C., centrifuging at 5000 rpm for 10 min, collecting the supernatant and storing it at −20° C. for later use. While the preparation process of the mouse lung homogenate was collecting lung tissues, adding 2 mL sterile normal saline to prepare a homogenate, then repeatedly freezing and thawing the homogenate in liquid nitrogen (5 min) and ice-water bath for 3 times, then centrifuging at 4° C. and 12000 rpm for 10 min, and collecting the supernatant for later use. According to the instructions of the kit, the serum and the supernatant of lung tissue homogenate as prepared were detected for IL-10, IL-4, IL-6, IL-10, TNF-α and IFN-γ (eBioscience).
smiles,measurement,setting,value
"COc1ccc2[nH]cc(CCNC(C)=O)c2c1 [melatonin, N-acetyl-5-methoxytryptamine]",time to kill all bacteria,"Pasteurella multocida [1]; 4 mg/mL of melatonin, added after 8 hours culture",10 h
same,bactericidal effect,"Pasteurella multocida [1]; concentration higher than the MBC (4, 8, 10 mg/mL)",significant bactericidal effect in a dose-dependent manner
same,time to kill all bacteria,"Pasteurella multocida [1]; higher concentration of melatonin (8, 10 mg/mL)",4 h
same,enzyme activity of citrate synthase,[2],significantly reduces
same,enzyme activity of citrate synthase,[3],significantly reduces
same,survival rate,Pasteurella multocida [4]; FIG. 35,improving the survival rate
same,bacterial colonization in mouse lungs,Pasteurella multocida [4]; FIG. 36,reducing bacterial colonization
same,expression of IFN-γ,inflammatory cytokines,significantly reduced
same,expression of IL-6,inflammatory cytokines,significantly reduced
same,expression of TNF-α,inflammatory cytokines,significantly reduced
same,transcription and expression of IL-4,inflammatory cytokines,promoted
same,transcription and expression of IL-10,inflammatory cytokines,promoted

# — US20210353595A1, “USE OF MELATONIN IN PREPARATION OF MEDICAMENT FOR INHIBITING AND/OR KILLING BACTERIUM” (priority 2020, published 2021)
